Tested on: GLK-induced NF-κB luciferase activity of CHO-GLK-Luc cells
Experiment: Cell-based NF-κB luciferase reporter assay in GLK-transfected CHO-K1 cells
Set-up: species or system Chinese hamster
Conditions: stable GLK-transfected CHO-K1 cells; Fig. 3A
Experimental: Cell-based high‐throughput screening was conducted against a representative library of 100,000 molecules at ∼10 μM. The Chinese hamster ovary CHO-K1 (ATCC, CCL-61) cells expressing GLK and NF-κB luciferase (Luc) reporter were used. The reaction volume was 5 μl (500 cells) per well in 1536‐well plates. There was no positive control. This high‐throughput screening campaign was successful, with a determined Z' factor of 0.57 ∼ 0.60. […] At the end, 1392 compounds were identified for high inhibition (>80%) of the GLK-induced NF-κB luciferase activity of CHO‐GLK‐Luc cells. These 1392 compounds were further screened for the inhibition of GLK kinase activity by in vitro kinase assays using the kinase-dead PKC-θ protein as the substrate. From the screening, 2 potential small-molecule GLK inhibitors [half maximal inhibitory concentration (IC50) < 10 μM] were identified.
Figure 3 Verteporfin (C1) blocks the AhR–ROR-γt complex in human autoimmune T cells. A) Luciferase activity of NF-κB–driven reporter assays in stable GLK-transfected CHO-K1 cells that were treated with or without C1 under the indicated concentration. The fold changes are presented relative to the value of vector control. […] D) Quantification of the PLA signals shown in panel C. *P < 0.05, ***P < 0.001 (2-tailed Student’s t test).

## verteporfin
  GLK signaling in cell lines (NF-κB-driven luciferase activity): efficiently inhibited

Reference: PMC6766655, “AhR–ROR-γt complex is a therapeutic target for MAP4K3/GLK^highIL-17A^high subpopulation of systemic lupus erythematosus” (The FASEB Journal, 2019)
